# Results from patent US8129398B2 (priority 2008, dated 2012).
# Target: T1, HIV-integrase (Human immunodeficiency virus type 1 group M subtype B, UniProt P12497)
# T1 construct: Recombinant integrase (0.26 ng) was incubated with the beads
# Test: HIV-Integrase Inhibition Activity (SPA bead integration assay with P33 labeled target DNA)
# Type: biochemical
# Details: recombinant integrase, class symbols; read-out: in vitro activity
# Method: HIV-Integrase Inhibition Activity. To evaluate in-vitro activity against HIV-integrase, 5 pmole of biotin labeled substrate DNA was bound to 100 μg of Streptavidin coated PVT SPA beads (Amersham Pharmacia Biotech). Recombinant integrase (0.26 ng) was incubated with the beads for 90 min at 37° C. Unbound enzyme was removed by washing the complex followed by addition of inhibitors and 0.1 fmol of P33 labeled target DNA. The reaction was stopped by adding EDTA to a final concentration of 10 mM. Samples were counted in TopCountNXT (Packard) and the CPM was used as a measure of integration. The reaction condition was as described in A. Engelman and R. Craigie, J. Virol. 69, 5908-5911 (1995). The sequences of substrate and target DNA were described in Nucleic Acid Research 22, 1121-1122 (1994). Activity equal to A refers to a compound having IC50=<10 nM while B and C denote compounds having […] and IC50>100 nM respectively.
row,SMILES,IC50 [nM]
1,"CN(C)C(=O)C(=O)NC12CCC(CC1)Cn1c2nc(C(=O)NCc2ccc3nccn3c2)c(O)c1=O [Example 244, Ethanediamide, N,N-dimethyl-N′-[6,7,8,9-tetrahydro-3-hydroxy-2-[[(imidazo[1,2-a]pyridin-6-ylmethyl)amino]carbonyl]-4-oxo-7,10-ethanopyrimido[1,2-a]azepin-10(4H)-yl]-]",10 to 100
2,"COc1cc(CNC(=O)c2nc3n(c(=O)c2O)CC2CCC3(N(C)C(=O)C(=O)N(C)C)CC2)ccc1F [Example 160, N-(2-((4-Fluoro-3-methoxybenzyl)carbamoyl)-3-hydroxy-4-oxo-6,7,8,9-tetrahydro-7,10-ethanopyrimido[1,2-a]azepin-10(4H)-yl)-N,N′,N′-trimethylethanediamide]",< 10
3,"CC(=O)N[C@@H]1CCN(C(=O)C(=O)NC23CCC(CC2)Cn2c3nc(C(=O)NCc3ccc(F)cc3)c(O)c2=O)C1 [Example 86, 10-((((3R)-3-(Dcetylamino)-1-pyrrolidinyl)(oxo)acetyl)amino)-N-(4-fluorobenzyl)-3-hydroxy-4-oxo-4,6,7,8,9,10-hexahydro-7,10-ethanopyrimido[1,2-a]azepine-2-carboxamide]",< 10
4,"Cc1nnc(C(=O)NC23CCC(CC2)Cn2c3nc(C(=O)NCc3ccc(F)cc3)c(O)c2=O)o1 [Example 53, N-(4-Fluorobenzyl)-3-hydroxy-10-(((5-methyl-1,3,4-oxadiazol-2-yl)carbonyl)amino)-4-oxo-4,6,7,8,9,10-hexahydro-7,11-ethanopyrimido[1,2-a]azepine-2-carboxamide]",< 10
5,"CN(C(=O)N(C)C12CCC(CC1)Cn1c2nc(C(=O)NCc2ccc(F)cc2)c(O)c1=O)c1ccccn1 [Example 328, 7,10-Ethanopyrimido[1,2-a]azepine-2-carboxamide, N-[(4-fluorophenyl)methyl]-4,6,7,8,9,10-hexahydro-3-hydroxy-10-[methyl[(methyl-2-pyridinylamino)carbonyl]amino]-4-oxo-]",10 to 100
6,"CN(C(=O)c1cccnc1)C12CCC(CC1)Cn1c2nc(C(=O)NCc2ccc(F)cc2)c(O)c1=O [Example 322, 7,10-Ethanopyrimido[1,2-a]azepine-2-carboxamide, N-[(4-fluorophenyl)methyl]-4,6,7,8,9,10-hexahydro-3-hydroxy-10-[methyl(3-pyridinylcarbonyl)amino]-4-oxo]",< 10
7,"O=C(NCc1ccc(F)cc1)c1nc2n(c(=O)c1O)CC1CCC2(Nc2ncc[nH]2)CC1 [Example 334, 7,10-Ethanopyrimido[1,2-a]azepine-2-carboxamide, N-[(4-fluorophenyl)methyl]-4,6,7,8,9,10-hexahydro-3-hydroxy-10-(1H-imidazol-2-ylamino)-4-oxo-]",< 10
8,"CN(C)C(=O)C(=O)NC12CCC(CC1)Cn1c2nc(C(=O)NCc2ccc(F)c(Cl)c2)c(O)c1=O [Example 112, N′-(2-((3-Chloro-4-fluorobenzyl)carbamoyl)-3-hydroxy-4-oxo-6,7,8,9-tetrahydro-7,10-ethanopyrimido[1,2-a]azepin-10(4H)-yl)-N,N-dimethylethanediamide]",< 10
9,"Cc1cc(C(=O)NC23CCC(CC2)Cn2c3nc(C(=O)NCc3ccc(F)cc3)c(O)c2=O)n(C)n1 [Example 241, 7,10-Ethanopyrimido[1,2-a]azepine-2-carboxamide, 10-[[(1,3-dimethyl-1H-pyrazol-5-yl)carbonyl]amino]-N-[(4-fluorophenyl)methyl]-4,6,7,8,9,10-hexahydro-3-hydroxy-4-oxo-]",< 10
10,"COC(=O)NC12CCC(CC1)Cn1c2nc(C(=O)NCc2ccc(F)cc2)c(O)c1=O [Example 25, Methyl (2-((4-fluorobenzyl)carbamoyl)-3-hydroxy-4-oxo-6,7,8,9-tetrahydro-7,10-ethanopyrimido[1,2-a]azepin-10(4H)-yl)carbamate]",< 10
11,"O=C(NC12CCC(CC1)Cn1c2nc(C(=O)NCc2ccc(F)cc2)c(O)c1=O)C(=O)N1CC(F)(F)C1 [Example 98, 10-(((3,3-Difluoro-1-azetidinyl) (oxo)acetyl)amino)-N-(4-fluorobenzyl)-3-hydroxy-4-oxo-4,6,7,8,9,10-hexahydro-7,10-ethanopyrimido[1,2-a]azepine-2-carboxamide]",< 10
12,"O=C(N[C@@]12CC[C@@H](CCn3c1nc(C(=O)NCc1ccc(F)cc1)c(O)c3=O)C2)C(=O)N1CC[C@@H](F)C1 [Example 418, 8,1,1-Methano-4H-pyrimido[1,2-a]azocine-2-carboxamide, N-[(4-fluorophenyl)methyl]-11-[[2-[(3R)-3-fluoro-1-pyrrolidinyl]-1,2-dioxoethyl]amino]-6,7,8,9,10,11-hexahydro-3-hydroxy-4-oxo-, (8S,11R)—]",< 10
13,CN(C)C(=O)C(=O)NC12CCC(CC1)Cn1c2nc(C(=O)NCc2ccncc2)c(O)c1=O [Example 365],> 100
14,"Cc1nn(C)cc1CN(C)C(=O)C(=O)N(C)C12CCC(CC1)Cn1c2nc(C(=O)NCc2ccc(F)cc2)c(O)c1=O [Example 169, N-((1,3-Dimethyl-1H-pyrazol-4-yl)methyl)-N′-(2-((4-fluorobenzyl)carbamoyl)-3-hydroxy-4-oxo-6,7,8,9-tetrahydro-7,10-ethanopyrimido[1,2-a]azepin-10(4H)-yl)-N,N′-dimethylethanediamide]",< 10
15,"CN(C)C(=O)C(=O)NC12CCC(CC1)Cn1c2nc(C(=O)NCc2ccc(F)c(C(F)F)c2)c(O)c1=O [Example 124, N′-(2-((3-(Difluoromethyl)-4-fluorobenzyl)carbamoyl)-3-hydroxy-4-oxo-6,7,8,9-tetrahydro-7,10-ethanopyrimido[1,2-a]azepin-10(4H)-yl)-N,N-dimethylethanediamide]",< 10
16,"O=C(NC12CCC(CC1)Cn1c2nc(C(=O)NCc2ccc(F)cc2)c(O)c1=O)C(=O)N1CCN(c2ccccc2)CC1 [Example 77, N-(4-Fluorobenzyl)-3-hydroxy-4-oxo-10-((oxo(4-phenyl-1-piperazinyl)acetyl)amino)-4,6,7,8,9,10-hexahydro-7,10-ethanopyrimido[1,2-a]azepine-2-carboxamide]",< 10
17,"CN(C)C(=O)C(=O)NC12CCC(CC1)Cn1c2nc(C(=O)NCc2cccc(-n3cncn3)c2)c(O)c1=O [Example 125, N′-(3-Hydroxy-4-oxo-2-((3-(1H-1,2,4-triazol-1-yl)benzyl)carbamoyl)-6,7,8,9-tetrahydro-7,10-ethanopyrimido[1,2-a]azepin-10(4H)-yl)-N,N-dimethylethanediamide]",< 10
18,CCN(CC)C(=O)C(=O)NC12CCC(CCn3c1nc(C(=O)NCc1ccc(F)cc1)c(O)c3=O)C2 (centres unmarked) [Example 201],< 10
19,"CO[C@@H]1C[C@@H](C(=O)NC23CCC(CC2)Cn2c3nc(C(=O)NCc3ccc(F)cc3)c(O)c2=O)N(C(C)=O)C1 [Example 273, 7,10-Ethanopyrimido[1,2-a]azepine-2-carboxamide, 10-[[[(2S,4R)-1-acetyl-4-methoxy-2-pyrrolidinyl]carbonyl]amino]-N-[(4-fluorophenyl)methyl]-4,6,7,8,9,10-hexahydro-3-hydroxy-4-oxo-]",< 10
20,"O=C(NC12CCC(CC1)Cn1c2nc(C(=O)NCc2ccc(F)cc2)c(O)c1=O)NS(=O)(=O)c1ccccc1 [Example 330, 7,10-Ethanopyrimido[1,2-a]azepine-2-carboxamide, N-[(4-fluorophenyl)methyl]-4,6,7,8,9,10-hexahydro-3-hydroxy-4-oxo-10-[[[(phenylsulfonyl)amino]carbonyl]amino]-]",< 10
21,"Cc1cc(CNC(=O)c2nc3n(c(=O)c2O)CC2CCC3(N(C)C(=O)C(=O)N(C)CC3CCCO3)CC2)ccc1F (centres unmarked) [Example 166, N-(2-((4-Fluoro-3-methylbenzyl)carbamoyl)-3-hydroxy-4-oxo-6,7,8,9-tetrahydro-7,10-ethanopyrimido[1,2-a]azepin-10(4H)-yl)-N,N′-dimethyl-N′-(tetrahydro-2-furanylmethyl)ethanediamide]",< 10
22,"O=C(NC12CCC(CC1)Cn1c2nc(C(=O)NCc2ccc(F)cc2)c(O)c1=O)C(=O)N1CC[C@H](F)C1 [Example 103, N-(4-Fluorobenzyl)-10-((((3S)-3-fluoro-1-pyrrolidinyl)(oxo)acetyl)amino)-3-hydroxy-4-oxo-4,6,7,8,9,10-hexahydro-7,10-ethanopyrimido[1,2-a]azepine-2-carboxamide]",< 10
23,CN(C)C(=O)C(=O)NC12CCC(CC1)Cn1c2nc(C(=O)NCCCc2ccccc2)c(O)c1=O [Example 349],< 10
24,"Cc1cc(CNC(=O)c2nc3n(c(=O)c2O)CC2CCC3(N(C)C(=O)C(=O)N(C)C)CC2)ccc1F [Example 156, N-(2-((4-Fluoro-3-methylbenzyl)carbamoyl)-3-hydroxy-4-oxo-6,7,8,9-tetrahydro-7,10-ethanopyrimido[1,2-a]azepin-10(4H)-yl)-N,N′,N′-trimethylethanediamide]",< 10
25,"O=C(NC12CCC(CC1)Cn1c2nc(C(=O)NCc2ccc(F)cc2)c(O)c1=O)c1ccnc(N2CCOCC2)c1 [Example 317, 7,10-Ethanopyrimido[1,2-a]azepine-2-carboxamide, N-[(4-fluorophenyl)methyl]-4,6,7,8,9,10-hexahydro-3-hydroxy-10-[[[2-(4-morpholinyl)-4-pyridinyl]carbonyl]amino]-4-oxo-]",< 10
26,"Cc1c(C(=O)NC23CCC(CC2)Cn2c3nc(C(=O)NCc3ccc(F)cc3)c(O)c2=O)ncn1C [Example 242, 7,10-Ethanopyrimido[1,2-a]azepine-2-carboxamide, 10-[[(1,5-dimethyl-1H-imidazol-4-yl)carbonyl]amino]-N-[(4-fluorophenyl)methyl]-4,6,7,8,9,10-hexahydro-3-hydroxy-4-oxo-]",< 10
